Laboratory results from patent US20230235283A1, “CULTURE MEDIUM FOR ESOPHAGEAL SQUAMOUS CELL CARCINOMA EPITHELIAL CELLS, CULTURE METHOD, AND APPLICATION THEREOF” (PRECEDO PHARMACEUTICALS CO., LTD, priority 2020, published 2023).

Tests used:
Format in all cases: cell-based, human
[1] = system: ESCC tumor cells (No. 0F0064); assay: Effects of different factors added to basic medium BM on proliferation of primary ESCC cells (cell count); conditions: factor added to BM at concentrations of Table 3; 12 days of culture; FIGS. 1A-1E
Method: Extracellular matrix gel (Matrigel®) (manufactured by BD Biosciences) was diluted at 1:100 in serum-free DMEM/F12 medium to prepare an extracellular matrix dilution, which was added to a 48-well culture plate with 500 μl/well to completely cover the bottom of the wells of the culture plate. The resultant was let stand for 1 hour in a 37° C. incubator. After 1 hour, the extracellular matrix dilution was removed to provide a Matrigel-coated plate.
Preparation of basic medium (abbreviated as BM): BM was prepared by adding 0.2 vol. % of Primocin (purchased from Invivogen, with a concentration of 50 mg/mL) to the commercial DMEM/F-12 medium to provide a final concentration of 100 μg/mL.
Next, different kinds and concentrations of additive factors (Table 3) were added to the basic medium (BM), so as to prepare culture mediums for ESCC epithelial cells containing different additive components.
The culture mediums with different components were added at a volume of 500 μl/well to 48-well plates which were coated with extracellular matrix gel (Matrigel). ESCC tumor cells (No. 0F0064) isolated from ESCC tissue according to the same method described in Example 1 were inoculated in a Matrigel-coated 48-well culture plate at a cell density of 2×10^4 cells/cm^2. After surface disinfection, the plate was placed in a 37° C., 5% CO2 incubator (purchased from Thermo Fisher), such that equal numbers of freshly isolated ESCC tumor cells (No. 0F0064) were cultured under different medium formulations. The culture mediums were renewed every 4 days after the start of the culture. After 12 days of culture, cell counts were performed. As an experiment control, the basis medium (BM) without any additive was used. The ordinate in each figure represents the ratio of the number of cells obtained after culture in different mediums to the number of cells obtained after culture in basic medium BM. As shown in the figures, the addition of different concentrations of different factors as shown in Table 3 to BM has different effects on cell proliferation.

[2] = system: primary ESCC tumor cells (No. 0F0061); assay: Effects of removing single factor or combination of factors from FEM on continuous expansion of primary ESCC cells; conditions: continuous culture, third passage; FIG. 12 and FIG. 13
Method: The culture medium for primary ESCC epithelial cell FEM was prepared in the same method of Example 2. As a control, a basic medium (hereinafter also referred to as “BM”) was prepared using the same method of Example 2. In addition, six other different culture mediums were prepared according to Table 9.
ESCC tissue-originated primary ESCC tumor cells (No. 0F0061) were obtained by using the same method as in Example 1. Then, the primary ESCC tumor cells were inoculated in a Matrigel® (manufactured by BD Biosciences)-coated 24-well plate at a density of 4×10^4 cells/cm^2. 1 mL of the culture medium for primary ESCC epithelial cells (FEM) of the invention was used, which was then placed in a 37° C., 5% CO2 incubator (purchased from Thermo Fisher) for culture.
When the cells in the culture plate grew to cover about 80% of the bottom area, the medium supernatant in the 24-well plate was discarded and 400 μL 0.05% trypsin (purchased from Gibco) was added for cell digestion; the cells were incubated at 37° C. for 10 minutes until the cells were completely digested as observed under the microscope (EVOS M500, Invitrogen); then the digestion was terminated by using 800 μL of DMEM/F12 culture solution containing 5% (v/v) fetal bovine serum, 100 U/mL penicillin, and 100 μg/mL penicillin; the resultant was collected into a 15 mL centrifuge tube and centrifuged at 1500 rpm for 4 minutes, and then the supernatant was discarded. The centrifuged cell sediments were resuspended in the culture medium of the invention and were counted with a flow imaging counter (JIMBIO FIL, Jiangsu Jimbio Technology Co., Ltd.) to obtain the total number of cells. The cells were incubated into another 24-well culture plate coated with extracellular matrix gel at a density of 2×10^4 cells/cm^2 for further culture. The cells were inoculated into the 24-well culture plate coated with extracellular matrix gel at the same density using other seven different mediums for culture.
When the passaged cells grew in the culture plate to cover about 80% of the bottom area of the plate again, the cultured cells were digested, collected and counted according to the above operating method. The cells were inoculated at a density of 2×10^4 cells/cm^2 again and cultured continuously using the respective culture mediums of different compositions.
The following is the formula for calculating the cell population doubling number of primary ESCC epithelial cells under different culture conditions:
Population Doubling (PD)=3.32*log10 (total number of digested cells/the number of cells at initial inoculation), see Chapman et al., Stem Cell Research & Therapy 2014, 5: 60. […]

[3] = system: ESCC tumor cells (Sample No. 0F0065); assay: Effects of different concentrations of the additive factors in FEM on proliferation of primary ESCC cells; conditions: factor added back to FEM lacking it; first passage; FIGS. 3A-3H; preferably
Method: Extracellular matrix gel (Matrigel®) (manufactured by BD Biosciences) was diluted at 1:100 in serum-free DMEM/F12 medium to prepare an extracellular matrix dilution, which was added to a 48-well culture plate with 200 μl/well to completely cover the bottom of the wells of the culture plate. The resultant was let stand for 1 hour in a 37° C. incubator. After 1 hour, the extracellular matrix dilution was removed to provide a Matrigel-coated plate. […]
ESCC epithelial cells originated from cancer tissue were isolated and obtained from the cancer tissue of an ESCC patient (Sample No. 0F0065) using the same method as in Example 1. Next, ESCC tumor cells originated from cancer tissue were counted with a flow imaging counter (JIMBIO FIL, Jiangsu Jimbio Technology Co., Ltd.) to obtain the total number of cells. […] The centrifuged cell sediments were resuspended in the basic medium BM and were counted with a flow imaging counter (JIMBIO FIL, Jiangsu Jimbio Technology Co., Ltd.) to obtain the total number of cells. […]

Row | Molecule | effect on cell proliferation (ratio of number of cells to that in basic medium BM) [1] | proliferation effect of cells after removal of the component from FEM [2] | amount in the culture medium, preferable (proliferation ratio to control well) [3] [ng/mL]
1 | epidermal growth factor: growth factor from Sino Biological (NSDSECPLSHDGYCLHDGVCMYIEALDKYACNCVVGYIGERCQYRDLKWWELR; Epidermal growth factor; UniProt P01133 971-1023, looked up) | promoting effects on cell proliferation | – | –
2 | Cc1cccc(-c2nn(C(=S)Nc3ccccc3)cc2-c2ccnc3ccccc23)n1 [Compound A83-01] | – | significantly attenuated | –
3 | C[C@@H](N)[C@H]1CC[C@H](C(=O)Nc2ccncc2)CC1 [Compound Y27632, reference compound] | promoting effects on cell proliferation | significantly attenuated | –
4 | hepatocyte growth factor: growth factor from Sino Biological | promoting effects on cell proliferation | – | 2.5 to 20
5 | CN1C(=O)C(c2c(F)cccc2F)N(C)c2nc(Nc3ccc(S(N)(=O)=O)cc3)ncc21 (stereo not shown) [Compound 1, 4-((7-(2,6-difluorophenyl)-5,8-dimethyl-6-oxo-5,6,7,8-tetrahydropteridin-2-yl)amino)benzsulfamide] | promoting effects on cell proliferation | significantly attenuated | –
6 | insulin-like growth factor 1: growth factor from Sino Biological | promoting effects on cell proliferation | – | –
7 | Oc1ccc(-c2nc(-c3ccncc3)c(-c3ccc(F)cc3)[nH]2)cc1 [SB202190] | – | significantly attenuated | –
